{"source": "patent US8207209B2", "about": "“Methods of inhibiting viral infection” (priority 2007, dated 2012)", "key": {"Influenza": {"test_system": "Influenza", "format": "cell-based, influenza virus"}, "PRRS virus": {"test_system": "PRRS virus", "format": "cell-based"}, "Bovine Corona virus": {"test_system": "Bovine Corona virus", "format": "cell-based"}, "Ebola virus [1]": {"test_system": "Ebola virus", "assay": "microbe, parasite or virus in culture", "format": "cell-based"}, "Marburg virus [2]": {"test_system": "Marburg virus", "assay": "organism not typed", "format": "cell-based"}, "Hepatitis C Virus": {"test_system": "Hepatitis C Virus", "format": "cell-based"}, "Dengue serotypes": {"test_system": "Dengue serotypes", "format": "cell-based, Dengue virus"}, "HIV": {"test_system": "HIV", "assay": "HIV infection in MT-4 cells", "format": "cell-based", "settings": "modest concentrations"}, "Rift Valley Fever Virus": {"test_system": "Rift Valley Fever Virus", "format": "cell-based"}, "Lassa Fever Virus": {"test_system": "Lassa Fever Virus", "format": "cell-based"}, "SARS": {"test_system": "SARS", "format": "cell-based"}, "cowpox virus [3]": {"test_system": "cowpox virus", "design": "species or system mice", "settings": "mouse, in vivo"}, "PBMC": {"test_system": "PBMC", "assay": "Cytokine levels in PBMC", "settings": "5 uM dose"}, "[4]": {"assay": "Serum levels of 365 in BALB/c mice", "settings": "5 mg/kg dose"}, "[5]": {"assay": "Response of mice to doses of 365 (safety)"}, "cowpox virus [6]": {"test_system": "cowpox virus", "format": "cell-based"}, "Ebola virus [7]": {"test_system": "Ebola virus", "design": "species or system mice", "settings": "mouse, in vivo"}, "Marburg virus [8]": {"test_system": "Marburg virus", "design": "species or system mice", "settings": "mouse, in vivo"}, "West Nile Virus": {"test_system": "West Nile Virus", "format": "cell-based"}, "[9]": {"test_system": "Paramyxoviruses including Parainfluenza and Respiratory Syncitial Virus", "format": "cell-based"}, "Caspase 1": {"biological_target": "Caspase 1 (Homo sapiens, UniProt P29466)", "sequence (P29466 120-297 limits assumed, species assumed)": "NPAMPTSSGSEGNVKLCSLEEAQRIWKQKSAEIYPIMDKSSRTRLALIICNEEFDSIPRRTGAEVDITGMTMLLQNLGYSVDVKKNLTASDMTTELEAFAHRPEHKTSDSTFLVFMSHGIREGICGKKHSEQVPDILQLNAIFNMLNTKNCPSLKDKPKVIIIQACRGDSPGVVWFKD", "sequence (P29466 317-404 limits assumed, species assumed)": "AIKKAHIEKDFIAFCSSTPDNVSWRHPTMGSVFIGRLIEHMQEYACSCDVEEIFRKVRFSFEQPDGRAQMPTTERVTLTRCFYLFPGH", "format": "biochemical"}, "Caspase 2": {"biological_target": "Caspase 2 (Homo sapiens, UniProt P42575)", "sequence (P42575 170-325 limits assumed, species assumed)": "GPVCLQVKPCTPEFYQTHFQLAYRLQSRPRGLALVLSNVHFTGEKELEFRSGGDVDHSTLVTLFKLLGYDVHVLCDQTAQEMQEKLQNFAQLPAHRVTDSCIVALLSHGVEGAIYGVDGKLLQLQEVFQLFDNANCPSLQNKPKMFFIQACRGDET", "sequence (P42575 348-452 limits assumed, species assumed)": "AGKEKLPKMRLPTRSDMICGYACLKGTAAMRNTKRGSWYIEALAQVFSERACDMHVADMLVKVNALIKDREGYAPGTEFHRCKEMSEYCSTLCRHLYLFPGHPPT", "format": "biochemical"}, "Caspase 3": {"biological_target": "Caspase 3 (Homo sapiens, UniProt P42574)", "sequence (P42574 29-175 limits assumed, species assumed)": "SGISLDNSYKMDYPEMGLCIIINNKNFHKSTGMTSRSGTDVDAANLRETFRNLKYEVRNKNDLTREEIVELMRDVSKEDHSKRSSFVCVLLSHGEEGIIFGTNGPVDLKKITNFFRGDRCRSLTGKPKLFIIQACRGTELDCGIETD", "sequence (P42574 176-277 limits assumed, species assumed)": "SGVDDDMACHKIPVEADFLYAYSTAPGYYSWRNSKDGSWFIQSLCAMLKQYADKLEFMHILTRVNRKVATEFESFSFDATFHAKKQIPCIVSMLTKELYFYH", "format": "biochemical"}, "Caspase 8": {"biological_target": "Caspase 8 (Homo sapiens, UniProt Q14790)", "sequence (Q14790 217-374 limits assumed, species assumed)": "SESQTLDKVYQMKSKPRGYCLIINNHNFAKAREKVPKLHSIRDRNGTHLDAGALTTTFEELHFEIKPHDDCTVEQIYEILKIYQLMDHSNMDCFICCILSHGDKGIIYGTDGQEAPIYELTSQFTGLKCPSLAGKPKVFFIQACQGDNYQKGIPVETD", "sequence (Q14790 385-479 limits assumed, species assumed)": "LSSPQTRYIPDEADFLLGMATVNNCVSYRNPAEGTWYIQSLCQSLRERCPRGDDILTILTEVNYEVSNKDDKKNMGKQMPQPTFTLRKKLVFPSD", "format": "biochemical"}, "Caspase 4": {"biological_target": "Caspase 4 (Homo sapiens, UniProt P49662)", "sequence (P49662 81-270 limits assumed, species assumed)": "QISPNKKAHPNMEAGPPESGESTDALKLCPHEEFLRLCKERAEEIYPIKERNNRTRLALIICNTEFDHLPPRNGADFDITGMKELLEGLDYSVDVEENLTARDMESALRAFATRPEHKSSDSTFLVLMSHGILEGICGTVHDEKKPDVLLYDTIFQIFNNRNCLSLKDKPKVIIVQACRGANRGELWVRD", "sequence (P49662 290-377 limits assumed, species assumed)": "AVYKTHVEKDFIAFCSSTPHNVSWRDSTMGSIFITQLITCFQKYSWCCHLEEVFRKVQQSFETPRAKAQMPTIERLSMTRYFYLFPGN", "assay": "Caspase inhibition", "format": "biochemical"}, "Caspase 9": {"biological_target": "Caspase 9 (Homo sapiens, UniProt P55211)", "sequence (P55211 1-315 limits assumed, species assumed)": "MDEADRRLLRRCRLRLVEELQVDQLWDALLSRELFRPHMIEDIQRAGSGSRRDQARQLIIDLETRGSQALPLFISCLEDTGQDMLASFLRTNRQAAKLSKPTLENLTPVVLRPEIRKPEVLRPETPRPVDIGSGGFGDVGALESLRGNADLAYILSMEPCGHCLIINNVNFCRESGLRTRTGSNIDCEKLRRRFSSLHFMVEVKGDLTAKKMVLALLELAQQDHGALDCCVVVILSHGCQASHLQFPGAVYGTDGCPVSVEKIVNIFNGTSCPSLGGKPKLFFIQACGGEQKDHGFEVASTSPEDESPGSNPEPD", "sequence (P55211 331-416 limits assumed, species assumed)": "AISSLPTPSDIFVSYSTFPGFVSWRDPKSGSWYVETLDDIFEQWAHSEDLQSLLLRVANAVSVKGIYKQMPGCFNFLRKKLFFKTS", "format": "biochemical"}, "Caspase 10": {"biological_target": "Caspase 10 (Homo sapiens, UniProt Q92851)", "sequence (Q92851 220-415 limits assumed)": "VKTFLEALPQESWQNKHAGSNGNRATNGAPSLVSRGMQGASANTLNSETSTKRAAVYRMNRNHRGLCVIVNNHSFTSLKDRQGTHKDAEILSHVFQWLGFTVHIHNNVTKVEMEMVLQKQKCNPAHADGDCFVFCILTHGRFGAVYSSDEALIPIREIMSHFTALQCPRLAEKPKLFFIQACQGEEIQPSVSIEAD", "sequence (Q92851 416-521 limits assumed)": "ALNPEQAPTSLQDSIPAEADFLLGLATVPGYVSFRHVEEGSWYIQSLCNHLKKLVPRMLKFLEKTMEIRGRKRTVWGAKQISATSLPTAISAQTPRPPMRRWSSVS", "assay": "Caspase inhibition", "format": "biochemical"}, "Hepatitis B virus (HBV)": {"test_system": "Hepatitis B virus (HBV)", "assay": "Hepatitis B virus cell based assay", "settings": "dose response"}, "[10]": {"settings": "mouse, in vivo"}, "[11]": {"settings": "mouse, in vivo, ip"}, "in vivo": {"assay": "in vivo", "settings": "mouse, ip, 10 mg/kg"}, "[12]": {"assay": "Serum concentration of 723 in guinea pigs", "settings": "guinea pig"}, "[13]": {"assay": "In vivo safety/toxicity (LD50) study of 723"}, "wide variety of cells": {"test_system": "wide variety of cells", "assay": "CC50 cytotoxicity of 723 in a variety of cell types", "settings": "cell based assays against a wide variety of cells"}}, "note": "“Also recorded” adds a separate entry of the source.", "data": [{"smiles": "Cc1cc(NCCCN(C)C)c2ccc3c(ccc4c(NCCCN(C)C)cc(C)nc43)c2n1.Cl.Cl.Cl.Cl", "note": "[Compound 365, Quino[8,7-h]quinoline-1,7-diamine,N,N′-bis[3-(dimethylamino)propyl]-3,9-dimethyl-tetrahydrochloride]", "values": [{"measurement": "effectiveness against Influenza infection", "setting": "Influenza", "value": "effective"}, {"measurement": "EC100", "setting": "PRRS virus", "value": 3.2, "unit": "µM"}, {"measurement": "effectiveness in inhibiting PRRS", "setting": "PRRS virus", "value": "showed effectiveness"}, {"measurement": "effectiveness against Bovine Corona virus", "setting": "Bovine Corona virus", "value": "effective; also recorded: inhibited"}, {"measurement": "inhibition of Ebola virus", "setting": "Ebola virus [1]", "value": 100, "unit": "%"}, {"measurement": "suppression of Marburg Virus", "setting": "Marburg virus [2]", "value": "suppressed"}, {"measurement": "inhibition of HCV (luciferase signal)", "setting": "Hepatitis C Virus", "value": "complete inhibition"}, {"measurement": "effectiveness against Dengue serotypes", "setting": "Dengue serotypes", "value": "effective"}, {"measurement": "inhibition of HIV", "setting": "HIV", "value": 100, "unit": "%"}, {"measurement": "EC50", "setting": "Rift Valley Fever Virus", "value": 370, "unit": "nM"}, {"measurement": "inhibition of Rift Valley Fever Virus (zero viral particle release)", "setting": "Rift Valley Fever Virus", "value": 100, "unit": "%"}, {"measurement": "inhibition of Lassa Fever Virus", "setting": "Lassa Fever Virus", "value": "suppressed"}, {"measurement": "inhibition of SARS", "setting": "SARS", "value": "inhibited"}, {"measurement": "survival outcomes", "setting": "cowpox virus [3]", "value": "did not ultimately improve survival outcomes"}, {"measurement": "survival times", "setting": "cowpox virus [3]", "value": "uniformly extend survival times"}, {"measurement": "cytokine levels relative to agent-free vehicle", "setting": "PBMC", "value": "not substantially different"}, {"measurement": "time course of serum concentration", "setting": "[4]", "value": "leaves the serum relatively rapidly"}, {"measurement": "dose at which all animals survived", "setting": "[5]", "value": "up to 25 mg/kg"}, {"measurement": "weight after administration", "setting": "[5]; up to 25 mg/kg", "value": "not significantly impacted"}]}, {"smiles": "N=C(N)c1ccc(-c2ccc(-c3ccc(C(=N)N)cc3)s2)cc1", "note": "[Compound 510, benzenecarboxylmidamide,4,4′-(2,5-thiphenediyl)bis]", "values": [{"measurement": "EC50", "setting": "cowpox virus [6]", "value": "~250", "unit": "nM"}, {"measurement": "protection against Ebola virus, therapeutic", "setting": "Ebola virus [7]", "value": "provided protection"}, {"measurement": "protection against lethal challenge", "setting": "Ebola virus [7]", "value": 100, "unit": "%"}, {"measurement": "protection, measured in terms of survival", "setting": "Marburg virus [8]", "value": 100, "unit": "%"}, {"measurement": "inhibition measured in terms of cell survival", "setting": "Ebola virus [1]", "value": 100, "unit": "%"}, {"measurement": "inhibition measured in terms of cell survival", "setting": "Marburg virus [2]", "value": 100, "unit": "%"}, {"measurement": "HCV viral titers", "setting": "Hepatitis C Virus", "value": "zero"}, {"measurement": "inhibition of Lassa Fever Virus", "setting": "Lassa Fever Virus", "value": "effective"}, {"measurement": "inhibition of West Nile Virus", "setting": "West Nile Virus", "value": 100, "unit": "%"}, {"measurement": "protection against Paramyxovirus challenge", "setting": "[9]", "value": "effective"}, {"measurement": "inhibition of Caspase 1", "setting": "Caspase 1", "value": "elevated inhibition; also recorded: to some degree"}, {"measurement": "inhibition of Caspase 2", "setting": "Caspase 2", "value": "elevated inhibition; also recorded: selective inhibition"}, {"measurement": "inhibition of Caspase 3", "setting": "Caspase 3", "value": "selective inhibition"}, {"measurement": "inhibition of Caspase 8", "setting": "Caspase 8", "value": "elevated inhibition; also recorded: selective inhibition"}, {"measurement": "inhibition of Caspase 4", "setting": "Caspase 4", "value": "not"}, {"measurement": "inhibition of Caspase 9", "setting": "Caspase 9", "value": "not"}, {"measurement": "inhibition of Caspase 10", "setting": "Caspase 10", "value": "not"}]}, {"smiles": "N=C(N)c1ccc2oc(C=Cc3nc4ccc(C(=N)N)cc4[nH]3)cc2c1", "note": "[Compound 723, 2-[2-(5-carbamimidoyl-benzofuran-2-yl)-vinyl]-3H-benzoimidazole-5-carboxamidine]", "values": [{"measurement": "effectiveness against Influenza infection", "setting": "Influenza", "value": "comparatively poorly"}, {"measurement": "effectiveness in inhibiting PRRS", "setting": "PRRS virus", "value": "showed effectiveness"}, {"measurement": "effectiveness against Bovine Corona virus", "setting": "Bovine Corona virus", "value": "effective"}, {"measurement": "protection on challenged mice", "setting": "Ebola virus [7]", "value": 90, "unit": "%"}, {"measurement": "survival", "setting": "Ebola virus [7]", "value": 25, "unit": "%"}, {"measurement": "treated animals survived", "setting": "Ebola virus [7]", "value": 100, "unit": "%"}, {"measurement": "protection, measured in terms of survival", "setting": "Marburg virus [8]", "value": 100, "unit": "%"}, {"measurement": "infection inhibition", "setting": "Ebola virus [1]", "value": 100, "unit": "%"}, {"measurement": "EC50", "setting": "Ebola virus [1]; Zaire ebolavirus", "value": "≤ 50", "unit": "nM"}, {"measurement": "EC50", "setting": "Marburg virus [2]", "value": "≤ 50", "unit": "nM"}, {"measurement": "infection inhibition", "setting": "Marburg virus [2]", "value": 100, "unit": "%"}, {"measurement": "effectiveness against Dengue serotypes", "setting": "Dengue serotypes", "value": "effective"}, {"measurement": "protection against Paramyxovirus challenge", "setting": "[9]", "value": "effective in conferring a great degree of protection"}, {"measurement": "effectiveness in treating HBV (reduction in viral copies)", "setting": "Hepatitis B virus (HBV)", "value": "effectiveness, at nanomolar levels"}, {"measurement": "t1/2 in mammalian models", "setting": "[10]", "value": "two-four"}, {"measurement": "concentrations in the liver and kidney", "setting": "[11]", "value": "high"}, {"measurement": "concentrations in the spleen and the heart", "setting": "[11]", "value": "relatively low"}, {"measurement": "half-life", "setting": "in vivo", "value": 2, "unit": "h"}, {"measurement": "half-life", "setting": "[12]", "value": 4, "unit": "h"}, {"measurement": "lethal dose", "setting": "[13]; administered on day zero", "value": 200, "unit": "mg/kg"}, {"measurement": "impact of dosing on weight over time", "setting": "[13]; below 200 mg/kg", "value": "little or no impact"}, {"measurement": "dose at which compound is well tolerated", "setting": "[13]; in vivo", "value": "up to 100 mg/kg"}, {"measurement": "CC50", "setting": "wide variety of cells", "value": "well above safety thresholds"}]}]}
